Laboratory results published in article PMC11592078, “Synthesis, Analytical Characterization, and Human CB1 Receptor Binding Studies of the Chloroindole Analogues of the Synthetic Cannabinoid MDMB-CHMICA” (Biomolecules, 2024).
Read-outs that look alike come from different tables or passages of the source.

How the values were obtained:
[1] = molecular target: T1, hCB1 receptor (Homo sapiens, UniProt P21554); test: competitive ligand binding assay with [3H]-CP-55,940 on hCB1 membrane preparations of HEK293-EBNA cells
T1 construct: purchased Perkin Elmer; host or cells: HEK293-EBNA
T1 sequence (P21554 whole entry): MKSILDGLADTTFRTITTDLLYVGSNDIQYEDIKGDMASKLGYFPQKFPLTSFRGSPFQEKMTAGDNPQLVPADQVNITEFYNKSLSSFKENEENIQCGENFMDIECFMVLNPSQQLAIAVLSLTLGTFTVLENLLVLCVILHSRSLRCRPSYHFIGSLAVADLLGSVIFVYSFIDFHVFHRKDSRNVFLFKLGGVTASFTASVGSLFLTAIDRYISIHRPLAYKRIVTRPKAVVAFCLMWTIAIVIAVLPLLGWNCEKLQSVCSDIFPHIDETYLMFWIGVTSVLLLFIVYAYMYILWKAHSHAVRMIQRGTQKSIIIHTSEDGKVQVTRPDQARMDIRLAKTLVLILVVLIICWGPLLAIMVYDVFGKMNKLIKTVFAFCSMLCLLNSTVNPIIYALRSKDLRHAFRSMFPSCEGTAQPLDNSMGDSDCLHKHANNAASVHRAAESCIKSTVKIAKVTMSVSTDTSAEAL

[2] = molecular target: T1, hCB1 receptor; parameters: method as in earlier work; settings: read-out: Ki at hCB1; comparable assay setup; ref 31 (Schoeder et al.); cited from earlier work

| Structure (SMILES) | IC50 [1] | Ki [1] | rank of Ki among the chloro analogues ([1]; comparison of the substitution positions) | Ki [2] |
| --- | --- | --- | --- | --- |
| COC(=O)[C@@H](NC(=O)c1c(Cl)n(CC2CCCCC2)c2ccccc12)C(C)(C)C [2-Chloro-MDMB-CHMICA, Methyl (S)-2-(2-chloro-1-(cyclohexylmethyl)-1H-indole-3-carboxamido)-3,3-dimethylbutanoate] | 23.6 nM | 0.58 nM | lowest Ki value | – |
| COC(=O)[C@@H](NC(=O)c1cn(CC2CCCCC2)c2cccc(Cl)c12)C(C)(C)C [4-Chloro-MDMB-CHMICA, Methyl (S)-2-(4-chloro-1-(cyclohexylmethyl)-1H-indole-3-carboxamido)-3,3-dimethylbutanoate] | 268 nM | 6.55 nM | – | – |
| COC(=O)[C@@H](NC(=O)c1cn(CC2CCCCC2)c2ccc(Cl)cc12)C(C)(C)C [5-Chloro-MDMB-CHMICA, Methyl (S)-2-(5-chloro-1-(cyclohexylmethyl)-1H-indole3-carboxamido)-3,3-dimethylbutanoate] | 402 nM | 9.81 nM | – | – |
| COC(=O)[C@@H](NC(=O)c1cn(CC2CCCCC2)c2cc(Cl)ccc12)C(C)(C)C [6-Chloro-MDMB-CHMICA, Methyl (S)-2-(6-chloro-1-(cyclohexylmethyl)-1H-indole-3-carboxamido)-3,3-dimethylbutanoate] | 31.6 nM | 0.77 nM | – | – |
| COC(=O)[C@@H](NC(=O)c1cn(CC2CCCCC2)c2c(Cl)cccc12)C(C)(C)C [7-Chloro-MDMB-CHMICA, Methyl (S)-2-(7-chloro-1-(cyclohexylmethyl)-1H-indole-3-carboxamido)-3,3-dimethylbutanoate] | 28.8 nM | 0.7 nM | – | – |
| CCCCCn1cc(C(=O)c2cccc3ccccc23)c2ccccc21 [JWH-018, naphthalen-1-yl(1-pentyl-1H-indol-3-yl)methanone, reference compound] | 103 nM | 2.69 nM | – | – |
| COC(=O)C(NC(=O)c1cn(CC2CCCCC2)c2ccccc12)C(C)(C)C (stereo not drawn) [MDMB-CHMICA, Methyl 2-[[1-(cyclohexylmethyl)-1H-indole-3-carbonyl]amino]-3,3-dimethylbutanoate] | – | 0.951 nM | – | 0.41 ± 0.141 nM |
